Assay results from US11530210B2, “Substituted heteroaromatic pyrazolo-pyridines and their use as GLUN2B receptor modulators” (JANSSEN PHARMACEUTICA NV, priority 2019, dated 2022).

Legend:
[1] = target: T1, human GluN1/GluN2B NMDA receptors (Homo sapiens, UniProt Q13224); experiment: Calcium flux (FLIPR) assay on cloned human NR1/GluN2B ion channels expressed in mammalian cells (standard and HTS variants); format: cell-based; details: cells expressing human GluN1/GluN2B, glutamate and glycine co-agonists
T1 construct: expressed in transfected cells
T1 sequence (Q13224 27-1484, other chains not shown): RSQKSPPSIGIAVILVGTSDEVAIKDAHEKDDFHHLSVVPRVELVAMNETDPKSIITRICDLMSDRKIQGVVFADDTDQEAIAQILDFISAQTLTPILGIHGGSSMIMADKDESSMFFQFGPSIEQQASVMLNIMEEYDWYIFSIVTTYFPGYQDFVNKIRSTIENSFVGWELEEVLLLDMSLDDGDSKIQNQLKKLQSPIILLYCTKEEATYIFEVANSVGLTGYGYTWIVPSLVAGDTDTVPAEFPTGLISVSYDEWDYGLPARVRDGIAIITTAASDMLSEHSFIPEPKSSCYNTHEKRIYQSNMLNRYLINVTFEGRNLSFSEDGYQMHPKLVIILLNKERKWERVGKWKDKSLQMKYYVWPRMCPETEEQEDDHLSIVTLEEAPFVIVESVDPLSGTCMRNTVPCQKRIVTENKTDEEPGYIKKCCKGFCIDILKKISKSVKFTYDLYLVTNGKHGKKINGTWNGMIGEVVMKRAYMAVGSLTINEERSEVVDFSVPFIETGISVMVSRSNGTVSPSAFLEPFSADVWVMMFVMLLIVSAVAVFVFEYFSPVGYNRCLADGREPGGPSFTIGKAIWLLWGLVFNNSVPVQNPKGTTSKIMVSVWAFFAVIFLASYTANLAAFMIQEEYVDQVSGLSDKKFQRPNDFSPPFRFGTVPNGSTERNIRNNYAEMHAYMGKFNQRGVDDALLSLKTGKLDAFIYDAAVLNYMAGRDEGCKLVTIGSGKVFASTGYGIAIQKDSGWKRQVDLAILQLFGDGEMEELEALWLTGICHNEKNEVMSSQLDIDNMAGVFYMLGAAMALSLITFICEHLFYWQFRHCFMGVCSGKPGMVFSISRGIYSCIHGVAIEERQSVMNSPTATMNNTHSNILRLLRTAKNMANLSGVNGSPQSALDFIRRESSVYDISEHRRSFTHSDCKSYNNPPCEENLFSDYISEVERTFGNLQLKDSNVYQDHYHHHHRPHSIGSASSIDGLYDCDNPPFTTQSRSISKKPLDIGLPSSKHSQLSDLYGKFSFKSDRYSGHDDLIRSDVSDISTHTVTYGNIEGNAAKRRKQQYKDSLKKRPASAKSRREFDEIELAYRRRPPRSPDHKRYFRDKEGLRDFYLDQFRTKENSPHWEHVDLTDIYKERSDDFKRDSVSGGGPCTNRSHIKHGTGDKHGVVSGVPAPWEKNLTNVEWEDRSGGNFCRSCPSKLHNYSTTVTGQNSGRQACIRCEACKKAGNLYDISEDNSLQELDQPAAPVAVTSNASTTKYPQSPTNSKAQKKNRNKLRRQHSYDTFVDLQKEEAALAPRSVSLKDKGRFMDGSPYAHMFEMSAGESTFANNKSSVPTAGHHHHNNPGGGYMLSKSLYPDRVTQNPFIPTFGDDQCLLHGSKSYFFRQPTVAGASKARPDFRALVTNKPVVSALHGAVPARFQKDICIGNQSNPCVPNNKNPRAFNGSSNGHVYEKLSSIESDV
Procedure, shortened: (§1)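 Tet-On-induced stable cell line loaded with Calcium 5 dye; compounds applied 5 min (agonist check), then glutamate at ~EC40 plus 10 μM glycine for 5 min. Buffer pH 7.4 with 0.5 mM MgCl2 in dye loading (standard) or 1.5 mM (HTS). FLIPR fluorescence normalized to control wells; (+)MK-801 as antagonist control.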

[2] = Liver microsomal stability (extraction ratio); format: in vitro ADME, mouse, rat, and human; details: test compound 1 μM, 0.5 mg/mL liver microsomes, NADPH 1 mM, 37° C.; ER = predicted hepatic clearance / species blood flow; species not given
Procedure: Protocol for Liver Microsomal Stability (Extraction Ratio)
Liver Microsomal Stability. Microsomal stability studies (Chrovian et al, “1H-Pyrrolo[3,2-b]pyridine GluN2B-Selective Negative Allosteric Modulators”. ACS Med Chem Lett. 2019 Jan. 10; 10(3):261-266) were conducted on a Biomek® FX Robotic Liquid Handling Workstation (Beckman Coulter, Brea, Calif.), which consists of a 96-channel pipette head, a 12-postion workstation deck, and a plate incubator. Test compounds (1 μm) were spiked in a reaction mix consisting of 100 mM potassium phosphate buffer (pH 7.4), 3 mM MgCl2, and 0.5 mg/mL liver microsomes from mouse, rat, and human (BD Gentest). The reaction was brought to 37° C. and initiated by adding NADPH to a final concentration of 1 mM. After mixing on the platedeck, 50 µL aliquots were excised from the reaction plate at 0, 5, 10, 20, 40, and 60 min and quenched with four volumes of acetonitrile spiked with […] of the internal standard phenytoin. Quenched plates were centrifuged at 5700 rpm for 10 min at 4° C., and supernatant was diluted 1:3 in water before LC/MS/MS analysis. The compound half-lives were derived from plots of the ln of percent remaining compound over time to determine the intrinsic clearance. The predicted hepatic clearance was derived from the intrinsic clearance value using equations from the well-stirred model (Current Drug Metabolism, 2008, 9, 940-951), where no correction was made plasma protein binding and the blood to plasma concentration ratio was assumed to be one.

[3] = target: T2, human GluN1/GluN2B NMDA receptors (Homo sapiens, UniProt Q05586+Q13224); experiment: Calcium flux (FLIPR) assay on cloned human NR1/GluN2B ion channels expressed in mammalian cells (standard and HTS variants); format: cell-based; details: cells expressing human GluN1/GluN2B, glutamate and glycine co-agonists
T2 construct: expressed in transfected cells
T2 sequence (Q13224 27-1484, other chains not shown): as above
Procedure, shortened: as §1

## Cc1cnc(Cn2ncc3ncc(-c4ccc(F)c(C(F)F)c4)cc32)o1 [Example 8, 2-[[6-[3-(Difluoromethyl)-4-fluoro-phenyl]pyrazolo[4,3-b]pyridin-1-yl]methyl]-5-methyl-oxazole]
[1]
  IC50: 28 nM
[2]
  Extraction Ratio @ 1 μM: 0.68

## Cc1nnc(Cn2ncc3ncc(-c4ccc(F)c(C(F)F)c4)cc32)o1 [Example 10, 2-[[6-[3-(Difluoromethyl)-4-fluoro-phenyl]pyrazolo[4,3-b]pyridin-1-yl]methyl]-5-methyl-1,3,4-oxadiazole]
[1]
  IC50: 19 nM
[2]
  Extraction Ratio @ 1 μM: 0.31

## CC(F)(F)c1cccc(-c2cnc3cnn(Cc4cccnc4)c3c2)c1 [Example 12, 6-[3-(1,1-Difluoroethyl)phenyl]-1-(3-pyridylmethyl)pyrazolo[4,3-b]pyridine]
[3]
  IC50: 26 nM

## CC(F)(F)c1cc(-c2cnc3cnn(Cc4cn[nH]c4)c3c2)ccc1F [Example 40, 6-[3-(1,1-Difluoroethyl)-4-fluoro-phenyl]-1-(1H-pyrazol-4-ylmethyl)pyrazolo[4,3-b]pyridine]
[3]
  IC50: 825 nM

## Cc1cc(Cn2ncc3ncc(-c4ccc(F)c(C(F)F)c4)cc32)on1 [Example 52, 5-[[6-[3-(Difluoromethyl)-4-fluoro-phenyl]pyrazolo[4,3-b]pyridin-1-yl]methyl]-3-methyl-isoxazole]
[1]
  IC50: 22 nM
[2]
  Extraction Ratio @ 1 μM: 0.69

## Cc1nnc(Cn2nc(F)c3ncc(-c4ccc(F)c(C(F)F)c4)cc32)o1 [Example 96, 2-[[6-[3-(Difluoromethyl)-4-fluoro-phenyl]-3-fluoro-pyrazolo[4,3-b]pyridin-1-yl]methyl]-5-methyl-1,3,4-oxadiazole]
[1]
  IC50: 38 nM
[2]
  Extraction Ratio @ 1 μM: <0.298

## Cc1nc(Cn2ncc3ncc(-c4ccc(F)c(C(F)F)c4)cc32)no1 [Example 97, 3-[[6-[3-(Difluoromethyl)-4-fluoro-phenyl]pyrazolo[4,3-b]pyridin-1-yl]methyl]-5-methyl-1,2,4-oxadiazole]
[1]
  IC50: 41 nM
[2]
  Extraction Ratio @ 1 μM: 0.42

## Cc1nnc(Cn2ncc3ncc(-c4ccc(F)c(C(F)F)c4)cc32)s1 [Example 122, 2-[[6-[3-(Difluoromethyl)-4-fluoro-phenyl]pyrazolo[4,3-b]pyridin-1-yl]methyl]-5-methyl-1,3,4-thiadiazole]
[1]
  IC50: 18 nM
[2]
  Extraction Ratio @ 1 μM: 0.60

## COc1nnc(Cn2ncc3ncc(-c4ccc(F)c(OC(F)F)c4)cc32)s1 [Example 134, 2-[[6-[3-(difluoromethoxy)-4-fluoro-phenyl]pyrazolo[4,3-b]pyridin-1-yl]methyl]-5-methoxy-1,3,4-thiadiazole]
[3]
  IC50: 1320 nM

## Fc1ccc(-c2cnc3cnn(Cc4cccnc4)c3c2)cc1C(F)F [Example 198, 6-[3-(Difluoromethyl)-4-fluoro-phenyl]-1-(3-pyridylmethyl)pyrazolo[4,3-b]pyridine]
[1]
  IC50: 8 nM
[2]
  Extraction Ratio @ 1 μM: 0.65

## Fc1cncc(Cn2ncc3ncc(-c4ccc(F)c(C(F)F)c4)cc32)c1 [Example 202, 6-[3-(Difluoromethyl)-4-fluoro-phenyl]-1-[(5-fluoro-3-pyridyl)methyl]pyrazolo[4,3-b]pyridine]
[1]
  IC50: 14 nM
[2]
  Extraction Ratio @ 1 μM: 0.57

## Fc1ccc(-c2cnc3cnn(Cc4cccnn4)c3c2)cc1C(F)F [Example 261, 6-[3-(Difluoromethyl)-4-fluoro-phenyl]-1-(pyridazin-3-ylmethyl)pyrazolo[4,3-b]pyridine]
[1]
  IC50: 23 nM
[2]
  Extraction Ratio @ 1 μM: <0.298

## Fc1ccc(-c2cnc3cnn(Cc4cncnc4)c3c2)cc1C(F)F [Example 275, 6-[3-(Difluoromethyl)-4-fluoro-phenyl]-1-(pyrimidin-5-ylmethyl)pyrazolo[4,3-b]pyridine]
[1]
  IC50: 12 nM
[2]
  Extraction Ratio @ 1 μM: 0.36

## COc1cc(Cn2ncc3ncc(-c4ccc(F)c(C(F)F)c4)cc32)ncn1 [Example 288, 6-[3-(Difluoromethyl)-4-fluoro-phenyl]-1-[(6-methoxypyrimidin-4-yl)methyl]pyrazolo[4,3-b]pyridine]
[1]
  IC50: 182 nM

## COc1cc(Cn2ncc3ncc(-c4ccc(F)c(OC(F)F)c4)cc32)ncn1 [Example 289, 6-[3-(Difluoromethoxy)-4-fluoro-phenyl]-1-[(6-methoxypyrimidin-4-yl)methyl]pyrazolo[4,3-b]pyridine]
[1]
  IC50: 350 nM

## COc1nccc(Cn2ncc3ncc(-c4ccc(F)c(C(F)F)c4)cc32)n1 [Example 290, 6-[3-(Difluoromethyl)-4-fluoro-phenyl]-1-[(2-methoxypyrimidin-4-yl)methyl]pyrazolo[4,3-b]pyridine]
[1]
  IC50: 320 nM

## COc1nccc(Cn2ncc3ncc(-c4ccc(F)c(OC(F)F)c4)cc32)n1 [Example 291, 6-[3-(Difluoromethoxy)-4-fluoro-phenyl]-1-[(2-methoxypyrimidin-4-yl)methyl]pyrazolo[4,3-b]pyridine]
[1]
  IC50: 938 nM

## OCc1nnc(Cn2ncc3ncc(-c4ccc(F)c(C(F)F)c4)cc32)o1 [Example 292, (5-((6-(3-(Difluoromethyl)-4-fluorophenyl)-1H-pyrazolo[4,3-b]pyridin-1-yl)methyl)-1,3,4-oxadiazol-2-yl)methanol]
[1]
  IC50: 170 nM

## Cc1nnc(Cn2ncc3ncc(-c4ccc(F)c(C(=O)O)c4)cc32)o1 [Example 293, 2-Fluoro-5-(1-((5-methyl-1,3,4-oxadiazol-2-yl)methyl)-1H-pyrazolo[4,3-b]pyridin-6-yl)benzoic acid]
[1]
  IC50: > 10000 nM

## [2H]c1nn(Cc2nnc(C)o2)c2cc(-c3ccc(F)c(C(F)F)c3)cnc12 [compound 297, 2-[[3-Deuterio-6-[3-(difluoromethyl)-4-fluoro-phenyl]pyrazolo [4,3-b]pyridin-1-yl]methyl]-5-methyl-1,3,4-oxadiazole]
[3]
  IC50: 24 nM
